Results reported in ChEMBL document CHEMBL1212708, “Sialic acid dependence in rotavirus host cell invasion” (Nat Chem Biol, 2009).
Active and inactive are the calls of the source. The rule behind the calls is not given here.

What was measured:
[1] = system: Rotavirus; assay: Binding affinity to sialidase-insensitive Rotavirus Wa VP8 at 3.5 mM by STD NMR spectrum
[2] = system: Rotavirus; assay: Binding affinity to […] Rotavirus CRW-8 VP8 at 3.5 mM by STD NMR spectrum
[3] = system: MA104; assay: Inhibition of Rotavirus CRW-8 VP8-mediated binding to monkey MA104 cells at 10 mM after 1 hr by immunofluorescence assay in presence of sialidase; assay type: cell-based
[4] = system: MA104; assay: Inhibition of Rotavirus CRW-8 VP8-mediated binding to monkey MA104 cells at 10 mM after 1 hr by immunofluorescence assay; assay type: cell-based
[5] = system: MA104; assay: Inhibition of Rotavirus CRW-8 VP8-mediated infectivity in monkey MA104 cells at 10 mM after 1 hr by immunofluorescence assay in presence of sialidase; assay type: cell-based
[6] = system: MA104; assay: Inhibition of Rotavirus Wa VP8-mediated binding to monkey MA104 cells at 10 mM after 1 hr by immunofluorescence assay in presence of sialidase; assay type: cell-based
[7] = system: MA104; assay: Inhibition of Rotavirus Wa VP8-mediated infectivity in monkey MA104 cells at 10 mM after 1 hr by immunofluorescence assay in presence of sialidase; assay type: cell-based
[8] = system: MA104; assay: Inhibition of Rotavirus Wa VP8-mediated binding to monkey MA104 cells at 10 mM after 1 hr by immunofluorescence assay; assay type: cell-based
[9] = system: MA104; assay: Inhibition of Rotavirus Wa VP8-mediated infectivity in monkey MA104 cells at 10 mM after 1 hr by immunofluorescence assay; assay type: cell-based
[10] = system: MA104; assay: Inhibition of Rotavirus CRW-8 VP8-mediated infectivity in monkey MA104 cells at 10 mM after 1 hr by immunofluorescence assay; assay type: cell-based
[11] = system: Rotavirus; assay: Binding affinity to sialidase-insensitive Rotavirus Wa VP8 protein at 0.46 mM by STD NMR spectral analysis
[12] = system: Rotavirus; assay: Binding affinity to […] Rotavirus CRW-8 VP8 at 1.2 mM by STD NMR spectrum

CC(=O)N[C@H]1[C@@H](O[C@@H]2[C@H](O[C@]3(C(=O)O)C[C@H](O)[C@@H](NC(C)=O)[C@H]([C@H](O)[C@H](O)CO)O3)[C@@H](O)[C@H](O[C@H]3[C@H](O)[C@@H](O)C(O)O[C@@H]3CO)O[C@@H]2CO)O[C@H](CO)[C@H](O)[C@@H]1O[C@@H]1O[C@H](CO)[C@H](O)[C@H](O)[C@H]1O (some centres not stated)
Activity [1]: Active
Activity [2]: inactive

CO[C@]1(C(=O)O)C[C@H](O)[C@@H](NC(C)=O)[C@H]([C@H](O)[C@H](O)CO)O1
Activity [3]: inactive
inhibition [4]: 35%
Activity [5]: inactive
inhibition [6]: Active
inhibition [7]: 26%
inhibition [8]: 45%
inhibition [9]: inactive
inhibition [10]: 52%

CC(=O)N[C@H]1[C@@H](O[C@@H]2[C@H](O[C@]3(C(=O)O)C[C@H](O)[C@@H](NC(C)=O)[C@H]([C@H](O)[C@H](O)CO)O3)[C@@H](O)[C@H](O[C@H]3[C@H](O)[C@@H](O)C(O)O[C@@H]3CO)O[C@@H]2CO)O[C@H](CO)[C@H](O)[C@@H]1O[C@@H]1O[C@H](CO)[C@H](O)[C@H](O[C@]2(C(=O)O)C[C@H](O)[C@@H](NC(C)=O)[C@H]([C@H](O)[C@H](O)CO)O2)[C@H]1O (some centres not stated)
Activity [11]: inactive
Activity [12]: Active
